For one assay, the target named is T1, Nluc-FZD4 (Homo sapiens, UniProt Q9ULV1).
T1 construct: expressed in transfected cells; host or cells: ΔFZD1–10 HEK293T cells
T1 sequence (Q9ULV1 37-537): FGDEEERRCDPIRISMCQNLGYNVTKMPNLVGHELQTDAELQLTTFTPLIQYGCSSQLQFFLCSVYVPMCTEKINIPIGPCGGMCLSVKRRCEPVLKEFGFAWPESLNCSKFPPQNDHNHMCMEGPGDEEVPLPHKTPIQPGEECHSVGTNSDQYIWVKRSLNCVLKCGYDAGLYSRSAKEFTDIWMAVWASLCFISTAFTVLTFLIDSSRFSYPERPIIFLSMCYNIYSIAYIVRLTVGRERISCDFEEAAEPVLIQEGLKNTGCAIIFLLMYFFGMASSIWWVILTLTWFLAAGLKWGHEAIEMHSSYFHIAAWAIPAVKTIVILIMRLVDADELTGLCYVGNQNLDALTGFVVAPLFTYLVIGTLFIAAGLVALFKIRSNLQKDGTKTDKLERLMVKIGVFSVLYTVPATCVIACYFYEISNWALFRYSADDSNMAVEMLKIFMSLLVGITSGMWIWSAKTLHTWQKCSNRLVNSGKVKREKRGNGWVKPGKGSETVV
Description: BRET-based BODIPY-cyclopamine competition binding at Nluc-FZD4. The conditions noted are these: BODIPY-cyclopamine 200 nM; ΔFZD1-10 HEK293T cells; read-out: pIC50 (11) mean ± SEM, Nluc-FZD4 (converted). As to the method: (§1) After 24 h, cells were washed once with Hanks' balanced salt solution (HBSS), followed by the addition of 80 μl of HBSS. Next, 10 μl of the competitive ligand, that is, the tested SAG1.3 derivative (either in different concentrations for the concentration–response curves or at a final concentration of 10 μM for the first screens) and 10 μl of the fluorescent tracer BODIPY–cyclopamine (final concentration: 300 nM for the first screens, 200 nM for the concentration–response experiments) were added. All serial dilutions were prepared in HBSS. The cells were incubated for 90 min at 37 °C without additional CO2, after which 10 μl of luciferase substrate diluted in HBSS (furimazine; Promega, N1572, final dilution: 1:1000 for first screening) and coelenterazine h (Biosynth; final concentration: 5 μM for concentration–response experiments) were added to the cells. Following a 10 min incubation period in the dark, the measurement was started on a BMG Labtech ClarioStar or TECAN Spark multimode microplate reader, prewarmed to 37 °C. Nluc bioluminescence was detected between 460 and 490 nm (ClarioStar) or 460 and 500 nm (TECAN Spark). The emission of the fluorescent tracer was detected between 520 and 550 nm (ClarioStar) or between 520 and 560 nm (TECAN Spark). […]
(In general: BRET reads energy transfer from a luciferase to a nearby fluorophore.)

In another assay the target is T2, Nluc-FZD5 (Homo sapiens, UniProt Q13467).
T2 construct: expressed in transfected cells; host or cells: ΔFZD1–10 HEK293T cells
T2 sequence (Q13467 27-585): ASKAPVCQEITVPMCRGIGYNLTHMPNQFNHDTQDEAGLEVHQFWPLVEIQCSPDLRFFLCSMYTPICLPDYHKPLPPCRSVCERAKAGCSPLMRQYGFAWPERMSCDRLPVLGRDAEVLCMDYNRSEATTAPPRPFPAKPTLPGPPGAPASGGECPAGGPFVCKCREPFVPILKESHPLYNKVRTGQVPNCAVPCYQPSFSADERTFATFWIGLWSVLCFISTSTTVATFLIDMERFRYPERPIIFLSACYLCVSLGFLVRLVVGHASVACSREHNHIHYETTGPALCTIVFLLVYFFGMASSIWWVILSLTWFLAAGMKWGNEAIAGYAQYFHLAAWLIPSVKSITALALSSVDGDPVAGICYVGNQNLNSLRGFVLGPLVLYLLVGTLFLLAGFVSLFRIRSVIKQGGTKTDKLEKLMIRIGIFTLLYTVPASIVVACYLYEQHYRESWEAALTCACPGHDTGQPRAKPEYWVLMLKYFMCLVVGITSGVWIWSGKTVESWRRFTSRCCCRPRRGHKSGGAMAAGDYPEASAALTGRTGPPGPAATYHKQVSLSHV
In words: BRET-based BODIPY-cyclopamine competition binding at Nluc-FZD5. The conditions noted are these: BODIPY-cyclopamine 200 nM; ΔFZD1-10 HEK293T cells; read-out: pIC50 (11) mean ± SEM, Nluc-FZD5 (converted). As to the method:
as §1

The subject of assay [1] is LGR5 gene expression in primary human hepatocyte (PHH) spheroids. Description: WNT-3A-induced LGR5 gene expression in primary human hepatocyte spheroids. As to conditions: 10 μM compound, 48 h, coaddition with WNT-3A. Type of assay: cell-based. As to the method:
Cryopreserved adult PHHs were purchased from BioIVT and cultured as 3D spheroids as previously described ([35]). Briefly, PHHs were seeded in 96-well ultra-low attachment plates (Corning) at a density of 1500 cells/well in William’s E medium (Gibco) supplemented with insulin, transferrin, and selenium (Life Technologies), 100 nM dexamethasone (Sigma), and 10% fetal bovine serum (Cytiva). PHHs were treated from the start of the culture with vehicle control (dimethyl sulfoxide [DMSO]), recombinant WNT-3A, and 10 μM compound 11 for 48 h, as indicated. […]
RNA from 24 hepatocyte spheroids per condition was isolated using Qiazol lysis reagent (QIAGEN). For expression profiling of target genes by quantitative PCR, complementary DNA synthesis was carried out using SuperScript III reverse transcriptase (Invitrogen), and expression was evaluated using Taqman probes (Table S6) according to the supplier’s instructions in a 7500 Fast Real-Time PCR system (Applied Biosystems). Gene expression was quantified using the ΔΔCt method (normalized to the average of the vehicle control from all three experiments).
For the WNT target gene analysis in PHH-derived spheroids, ΔΔCt values were calculated by normalization to the averaged vehicle control from three independent experiments.

With `CC(=O)Nc1cccc(C(=O)NC2CCC(N(Cc3cccc(-c4ccncc4)c3)C(=O)c3sc4ccccc4c3Cl)CC2)c1` (stereo not drawn) [compound 11, N-((1r,4r)-4-(3-Acetamidobenzamido)cyclohexyl)-3-chloro-N-(3-(pyridin-4-yl)benzyl)benzo[b]thiophene-2-carboxamide], the values for the IC50 on Nluc-FZD4 and at Nluc-FZD5 were 955 nM and 759 nM, respectively. For the same molecule, in assay [1], the “Effect on WNT-3A-induced LGR5 mRNA expression” value is given as “returning mRNA expression almost back to vehicle levels”.
